Test results published in US20230293535A1, “ERBB/BTK INHIBITORS” (Dizal (Jiangsu) Pharmaceutical Co., Ltd., priority 2018, published 2023).

Legend:
Ba/F3 EGFR NPH ins cells = assay: Cell proliferation, Ba/F3 EGFR NPH ins (CellTiter-Glo, 72 h); type: cell-based; settings: Ba/F3 EGFR, 72 h, Ba/F3 EGFR NPH ins, 72 h proliferation; read-out: EGFR Exon20 NPH insertion GI50;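 also: IL3-independent cells carrying constitutively phosphorylated EGFR, compound dilution series, viable cells quantified by ATP luminescence, growth relative to DMSO wells after subtracting pre-dosing (day 0) baseline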
Procedure: Similar to recombinant human EGFR exon 20 H769_V770insASV Ba/F3 cell line, the recombinant human EGFR exon 20 H773_V774insNPH Ba/F3 cell line also expresses constitutively phosphorylated EGFR protein and proliferates in the absence of IL3, which could be used for in vitro PD and anti-proliferation assays.
WT or mutant cells were seeded in 384 well plates at appropriate concentrations with corresponding growth media supplemented with 10% FBS, for each experiment, identical plates were prepared in duplicates, and the plates were incubated overnight. On the next day, one of each duplicated plates was dosed with tested compounds at a series of concentrations, and another one of the duplicated plate was analysied for G0 value. The dosed plates were incubate for another 72 h at 37° C. with 5% CO2 and the number of viable cells in each well of the G0 plates or the dosed plates were measured by CellTiter-Glo® Luminescent Cell Viability Assay (Promega). This assay is a luminescent method for determining the number viable cells through measurement of cellular ATP concentration by detection of luciferase activity. Detection reagents (15 µl) was dispensed into per well, and the plates were incubate for 30 min at room temperature. Then, the luminescence in each well was measured using the Envision plate reader (PerkinElmer). The percentage of proliferation was calculated based on the formula: %Proliferation= 100 × (G3 value of sample well-Go value)/(G3 value of DMSO control-Go value).

Ri-1 cells = assay: BTK (wt) cell proliferation, Ri-1 (CellTiter-Glo, 72 h); type: cell-based; settings: Ri-1, 72 h, Ri-1 cells, 72 h, CellTiter-Glo; read-out: BTK WT Ri-1 GI50;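 also: viable cells quantified as cellular ATP luminescence, proliferation normalized to a time-zero plate and the DMSO control, compounds tested across a dilution series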
WT EGFR cell line A-431 = assay: Cell proliferation, WT EGFR A431 (CellTiter-Glo, 72 h); type: cell-based; settings: Homo sapiens, A-431, 72 h, A431, 72 h proliferation; read-out: EGFR WT A431 GI50;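 also: proliferation from a luminescent ATP viability signal, expressed as 100 × (treated minus time-zero plate) over (DMSO control minus time-zero plate), cells grown with 10% FBS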
DB cells = assay: BTK (wt) cell proliferation, DB (CellTiter-Glo, 72 h); type: cell-based; settings: Homo sapiens, DB, DB cells, CellTiter-Glo, read-out: Non-BCR activated DB GI50;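 also: DB cells in 384-well plates given a dilution series of compound, viable cells read by ATP luminescence, growth expressed versus DMSO control after subtracting a time-zero plate reading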
Procedure: (§1) OCI-LY-10 at 3,750 cells/well, TMD-8 and Ri-1 at 2,000 cells/well, and DB at 1,250 cells/well, respectively, were sorted into 384-well plates in RPMI1640 medium with 10% FBS. After overnight incubation, all cells were incubated with compound at a series of concentrations. Meanwhile, a duplicated plate of each cell line was prepared for measuring G0 value. The dosed plates were further incubated for 72 hours and the number of viable cells was measured by CellTiter-Glo® Luminescent Cell Viability Assay (Promega), a luminescent method for determining the number of viable cells through measurement of cellular ATP concentration using Envision plate reader (PerkinElmer). The percentage of proliferation was calculated as: % Proliferation = 100 × (G3 value of sample well - G0 value)/(G3 value of DMSO control - G0 value).

[1] = system: Her2 exon 20 insertion YVMA transduced NIH-3T3 cell line; assay: Cell proliferation, Her2 YVMAins NIH-3T3 (CellTiter-Glo, 72 h); type: cell-based; settings: Mus musculus, NIH3T3, 72 h, Her2 YVMAins cells, 72 h proliferation; read-out: Her2 Exon 20 YVMA insertion GI50;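 also: viable cells quantified by ATP luminescence, growth over a day-zero baseline plate expressed as percent of DMSO control growth, compound dilution series in 10% FBS medium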
OCI-LY-10 cells = assay: BTK (wt) cell proliferation, OCI-LY-10 (CellTiter-Glo, 72 h); type: cell-based; settings: Homo sapiens, OCI-Ly10, 72 h, OCI-LY-10 cells, 72 h, CellTiter-Glo; read-out: BTK WT OCI-LY-10 GI50;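 also: viable cells quantified via cellular ATP luminescence, proliferation given as percent of DMSO control after subtracting a duplicate plate read at time of dosing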
Procedure: as §1

[2] = biological target: T1, human EGFR exon 20 H773_V774insNPH (Homo sapiens, UniProt P00533, INS773NPH); assay: EGFR Exon20 NPH insertion cellular phosphorylation inhibition (MSD pEGFR Y1068/total EGFR); type: cell-based; settings: Ba/F3 EGFR NPH ins cells, 4 h compound, p-EGFR(Y1068)/total EGFR;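 also: IL3-independent Ba/F3 cells with constitutively phosphorylated EGFR, compound exposure at 37 °C under 5% CO2, electrochemiluminescent MSD measurement of the p-EGFR to total EGFR ratio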
T1 construct: host or cells: Ba/F3

TMD-8 cells = assay: BTK (wt) cell proliferation, TMD-8 (CellTiter-Glo, 72 h); type: cell-based; settings: Homo sapiens, TMD8, 72 h, TMD-8 cells, 72 h, CellTiter-Glo; read-out: BTK WT TMD-8 GI50;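 also: viable cells quantified by ATP-based luminescence, proliferation expressed as percent of DMSO control after subtracting a time-zero baseline plate read at dosing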
[3] = In vitro rat hepatocytes clearance assay; settings: male, rat, cryopreserved rat hepatocytes (suspension), rat hepatocytes Clint (µL/min/10^6cells), 1 µM-range incubation up to 100 min
Procedure: The protocol for rat/human hepatocytes metabolic stability assay is employed to determine the clearance of the compounds of the present disclosure in vitro.
Rat hepatocytes in male gender and human hepatocytes in mixed gender were obtained from commercial vendors (e.g., BioreclamationIVT) and stored at -150° C. prior to use. 10 mM stock solutions of tested compounds were prepared in DMSO. Thawing medium and supplement incubation medium (serum-free) were placed in a 37° C. water bath for at least 15 minutes prior to use. Stock solutions were diluted to 100 µM by combining 198 µL acetonitrile and 2 µL of 10 mM stock solution.
Vials of cryopreserved hepatocytes were removed from storage, ensured that vials remain at cryogenic temperatures. The vials were thawed in a 37° C. water bath with gently shaking. Vials were kept in water bath until all ice crystals had dissolved and were no longer visible. Vials were sprayed with 70% ethanol before being transferred to a biosafety cabinet. And then the contents were poured into the 50 mL thawing medium conical tube. Vials were centrifuged at 100 g for 10 minutes at room temperature.
Cell viability and density were counted using a Trypan Blue exclusion, and then cells were diluted with serum-free incubation medium to a working cell density of 1 × 10^6 viable cells/ml. […] The inactivated hepatocytes were used to prepare negative samples, which were used to exclude the misleading factor that resulted from instability of chemical itself.
Aliquots of 247.5 µL hepatocytes were dispensed into each well of a 96-well non-coated plate. The plate was placed in the incubator on an orbital shaker for approximately 10 minutes. Aliquots of 2.5 µL of the 100 µM test compounds were added into respective wells of the non-coated 96-well plate to start the reaction. This assay was performed in duplicate. The plate was incubated in the incubator on an orbital shaker for the designed time points. […] Samples were centrifuges for 20 minutes at 4000 g and aliquots of 100 µL of the supernatants were used for LC-MS/MS analysis for measurement of test compounds
In vitro hepatocyte clearance was estimated based on determination of elimination half-life (T½) of compounds disappearance from their initial concentrations. Peak area ratios of each compound (test or control) to IS was calculated. Ln (%Control) versus Incubation Time (min) curve was plotted, and the slope of a linear fitting line was calculated.

WT EGFR = biological target: T2, WT EGFR (Homo sapiens, UniProt P00533); assay: WT EGFR cellular phosphorylation inhibition in A-431 (hEGF stimulated, MSD); type: cell-based; settings: A431 cells, 4 h compound, then 100 ng/ml hEGF 10 min;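 also: electrochemiluminescence read-out of EGFR Tyr1068 phosphorylation expressed as ratio to total EGFR, cells kept in medium with 1% FBS, compounds tested as a concentration series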
T2 construct: host or cells: A-431

[4] = In vitro human hepatocytes clearance assay; settings: both, human, cryopreserved human hepatocytes (suspension), human hepatocytes Clint (µL/min/10^6cells), mixed gender human hepatocytes, incubation up to 100 min
[5] = system: NCI-H1975 EGFR L858R/T790M cells; assay: Cell proliferation, NCI-H1975 EGFR L858R/T790M (CellTiter-Glo, 72 h); type: cell-based; settings: Homo sapiens, NCI-H1975, 72 h, NCI-H1975, 72 h proliferation; read-out: EGFR L858R and T790M mutation GI50;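 also: viable cells quantified by luciferase-based ATP luminescence, proliferation expressed relative to DMSO-treated wells (100%) after subtracting a parallel plate read at the time of dosing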
[6] = biological target: T3, human EGFR exon 20 V769_D770insASV (Homo sapiens, UniProt P00533, INS769ASV); assay: EGFR Exon20 ASV insertion cellular phosphorylation inhibition (MSD pEGFR Y1068/total EGFR); type: cell-based; settings: Ba/F3 EGFR ASV ins cells, 4 h compound, p-EGFR(Y1068)/total EGFR;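 also: electrochemiluminescent readout on an MSD SECTOR Imager, IL3-independent transduced cells in medium with 1% FBS, compound concentration series at 37 °C and 5% CO2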
T3 construct: expressed in transfected cells; host or cells: Ba/F3 (DSMZ ACC-300), lentiviral transduction, puromycin selection, IL3 depletion
Procedure: To generate the EGFR exon 20 V769_D770insASV transduced Ba/F3 cell line, the parental Ba/F3 cells were infected with the recombinant EGFR V769_D770insASV lentivirus and then followed by 1 µg/ml of puromycin selection and IL3 depletion. The resulting cell line expresses constitutively phosphorylated EGFR protein and proliferates in the absence of IL3, which could be used for in vitro PD and anti-proliferation assays.
One day before the test, WT or mutant cells were seeded in 96 well plates at appropriate concentrations with corresponding growth media supplemented with 1% FBS, and incubated overnight. The next day, tested compounds at a series of concentrations were added into each individual well of the plates, and the plates were incubated for 4 h at 37° C. with 5% CO2.
The EGFR (Y1068) phosphorylation level (activity) of cells in each well were then measured with MSD kit named “MULTI-SPOT®96 4-Spot HB Prototype EGFR Triplex [sequence]: pEGFR(Tyr1068),pEGFR(Tyr1173), Total EGFR” according to the manufacturer’s instruction (MESO SCALE DISCOVERY, Cat# N45ZB-1). The assay is an electrochemiluminescent method for determining both phosphorylated and total EGFR of cells with an MSD SECTOR® Imager and the ratio of p-EGFR/total EGFR can be generated by the machine. The Her2 (Y1248) phosphorylation level (activity) of cells in each well were measured with MSD Kit named “Phospho-ErbB2 (Tyr1248) Assay Whole Cell Lysate Kit” according to the manufacturer’s instruction (MESO SCALE DISCOVERY, Cat# K151CLD-3). The assay is an electrochemiluminescent method (MESO SCALE DISCOVERY) for determining both phosphorylated and total Her2 of cells with an MSD SECTOR® Imager and then the ratio of p-Her2/total Her2 can be generated by the machine.

[7] = biological target: T4, human Her2 exon 20 insertion mutation YVMA (Homo sapiens, UniProt P04626, INS775YVMA); assay: Her2 Exon 20 YVMA insertion cellular phosphorylation inhibition (MSD p-Her2 Y1248/total Her2); type: cell-based; settings: Her2 YVMAins cells, 4 h compound;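 also: lentivirally transduced NIH-3T3 cells in 1% FBS medium, electrochemiluminescent MSD read-out, graded compound concentrations at 37 °C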
T4 construct: expressed in transfected cells; host or cells: NIH-3T3, lentiviral transduction, puromycin selection

EGFR L858R&T790M = biological target: T5, EGFR L858R&T790M (Homo sapiens, UniProt P00533, L858R/T790M); assay: EGFR L858R and T790M cellular phosphorylation inhibition in NCI-H1975 (MSD); type: cell-based; settings: NCI-H1975 cells, 4 h compound, p-EGFR(Y1068)/total EGFR; read-out: EGFR L858R and T790M mutation IC50;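 also: phosphorylated and total EGFR detected by electrochemiluminescence, cells exposed to compound in medium containing 1% FBS at 37 °C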
T5 construct: host or cells: NCI-H1975

Ba/F3 EGFR ASV ins cells = assay: Cell proliferation, Ba/F3 EGFR ASV ins (CellTiter-Glo, 72 h); type: cell-based; settings: Ba/F3 EGFR, 72 h, Ba/F3 EGFR ASV ins, 72 h proliferation; read-out: EGFR Exon20 ASV insertion GI50;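 also: IL3-independent Ba/F3 cells transduced with EGFR V769_D770insASV, cellular ATP luminescence after compound exposure, growth relative to DMSO control with the day-0 baseline reading subtracted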
[8] = Rat pharmacokinetic study after oral administration (SOA); type: in vivo; settings: male Han Wistar rats
Procedure: For rat pharmacokinetic studies, six male Han Wistar rats were purchased from Beijing Vital River and orally dosed with the test compound at 10 mg/kg in 0.5% Tween-80 and 0.5% hydroxypropyl methylcellulose (v/w). At, 0.5, 1, 2, 4, 7 and 16 hours post-dose, blood samples (>100 µL/time point) were collected from portal vein and via cardiac puncture into separate K2EDTA […] tubes, and then immediately centrifuged at 1500 g, 5 min at 4° C. to separate plasma. The plasma samples were deproteinized with 4 fold acetonitrile (including internal standard), vortex for 10 min and centrifuges for 10 minutes at 4000 g at 4° C.. The supernatantswere submitted to LC/MS/MS (API 5500, Applied Biosystems, Foster City) analysis. Two sets of standard curves were run at the beginning and end of each batch from plasma sample analysis.
Compound absorption was measured by portal vein AUC (AUCHPV) and systemic AUC (AUCSYS) observed maximum concentration (Cmax) in rats after oral administration. Dose is the actual dose used in SOA study. Find below in Table 9 data for exemplary tested compounds.

T5 sequence (P00533 25-1210 T790M/L858R): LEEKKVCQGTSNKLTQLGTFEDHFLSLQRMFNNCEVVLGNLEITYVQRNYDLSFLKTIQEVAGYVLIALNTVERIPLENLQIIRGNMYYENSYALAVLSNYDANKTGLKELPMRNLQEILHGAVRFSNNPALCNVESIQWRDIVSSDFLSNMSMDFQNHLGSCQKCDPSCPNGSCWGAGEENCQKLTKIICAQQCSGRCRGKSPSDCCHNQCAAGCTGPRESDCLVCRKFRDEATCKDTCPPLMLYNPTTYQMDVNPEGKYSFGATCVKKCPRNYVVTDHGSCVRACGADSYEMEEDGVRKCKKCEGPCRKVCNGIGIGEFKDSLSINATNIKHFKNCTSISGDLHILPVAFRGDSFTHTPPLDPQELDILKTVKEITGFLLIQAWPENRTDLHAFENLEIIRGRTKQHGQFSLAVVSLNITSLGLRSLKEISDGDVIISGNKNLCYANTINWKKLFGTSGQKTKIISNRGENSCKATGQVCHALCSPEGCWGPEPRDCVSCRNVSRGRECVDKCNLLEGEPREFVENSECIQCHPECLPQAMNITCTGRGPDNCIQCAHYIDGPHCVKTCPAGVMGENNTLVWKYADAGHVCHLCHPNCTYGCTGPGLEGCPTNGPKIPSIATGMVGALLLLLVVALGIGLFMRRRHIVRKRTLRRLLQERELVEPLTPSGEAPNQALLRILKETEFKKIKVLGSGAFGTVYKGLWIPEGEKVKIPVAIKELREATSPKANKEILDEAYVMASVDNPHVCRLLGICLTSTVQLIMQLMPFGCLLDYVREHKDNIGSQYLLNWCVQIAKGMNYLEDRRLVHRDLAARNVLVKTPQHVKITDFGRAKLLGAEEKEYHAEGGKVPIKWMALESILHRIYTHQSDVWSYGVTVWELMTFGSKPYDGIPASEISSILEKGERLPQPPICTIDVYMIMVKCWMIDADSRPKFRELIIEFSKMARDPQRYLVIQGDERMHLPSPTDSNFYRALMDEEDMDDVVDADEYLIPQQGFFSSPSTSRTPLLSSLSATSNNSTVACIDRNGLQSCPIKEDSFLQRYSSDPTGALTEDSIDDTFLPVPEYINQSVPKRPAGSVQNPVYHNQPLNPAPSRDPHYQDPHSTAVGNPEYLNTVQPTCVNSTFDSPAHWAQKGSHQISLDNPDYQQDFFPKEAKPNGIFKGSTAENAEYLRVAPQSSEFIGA
T3 sequence (P00533 with tags, fused parts or gaps INS769ASV): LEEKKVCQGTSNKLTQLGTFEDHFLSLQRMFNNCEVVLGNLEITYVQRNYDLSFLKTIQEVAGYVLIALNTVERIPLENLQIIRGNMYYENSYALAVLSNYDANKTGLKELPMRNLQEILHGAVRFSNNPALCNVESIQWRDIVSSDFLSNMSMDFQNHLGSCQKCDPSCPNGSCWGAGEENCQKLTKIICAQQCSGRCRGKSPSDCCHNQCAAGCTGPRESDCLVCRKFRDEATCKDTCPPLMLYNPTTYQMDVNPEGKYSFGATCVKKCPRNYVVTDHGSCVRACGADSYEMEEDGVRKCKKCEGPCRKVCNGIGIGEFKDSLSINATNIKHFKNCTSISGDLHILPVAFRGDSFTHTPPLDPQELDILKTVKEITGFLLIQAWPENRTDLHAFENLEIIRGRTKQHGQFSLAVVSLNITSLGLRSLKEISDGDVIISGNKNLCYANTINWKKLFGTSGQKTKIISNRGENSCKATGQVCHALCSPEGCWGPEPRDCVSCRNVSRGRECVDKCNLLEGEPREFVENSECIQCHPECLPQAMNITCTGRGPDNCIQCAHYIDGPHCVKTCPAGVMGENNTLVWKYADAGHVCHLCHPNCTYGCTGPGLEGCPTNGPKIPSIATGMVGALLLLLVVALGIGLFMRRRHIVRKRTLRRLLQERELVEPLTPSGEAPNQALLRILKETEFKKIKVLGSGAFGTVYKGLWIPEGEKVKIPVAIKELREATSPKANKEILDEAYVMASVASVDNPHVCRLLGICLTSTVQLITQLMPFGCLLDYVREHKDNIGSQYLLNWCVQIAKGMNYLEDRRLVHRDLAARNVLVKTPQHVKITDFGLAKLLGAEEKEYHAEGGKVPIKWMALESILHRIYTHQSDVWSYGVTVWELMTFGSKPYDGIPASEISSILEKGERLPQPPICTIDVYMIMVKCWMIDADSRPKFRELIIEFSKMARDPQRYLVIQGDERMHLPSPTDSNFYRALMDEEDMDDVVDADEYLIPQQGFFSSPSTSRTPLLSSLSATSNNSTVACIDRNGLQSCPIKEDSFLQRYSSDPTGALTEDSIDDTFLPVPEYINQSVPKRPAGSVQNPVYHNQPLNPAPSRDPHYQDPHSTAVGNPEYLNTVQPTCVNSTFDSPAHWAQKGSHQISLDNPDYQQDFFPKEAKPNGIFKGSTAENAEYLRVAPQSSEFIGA
T1 sequence (P00533 with tags, fused parts or gaps INS773NPH): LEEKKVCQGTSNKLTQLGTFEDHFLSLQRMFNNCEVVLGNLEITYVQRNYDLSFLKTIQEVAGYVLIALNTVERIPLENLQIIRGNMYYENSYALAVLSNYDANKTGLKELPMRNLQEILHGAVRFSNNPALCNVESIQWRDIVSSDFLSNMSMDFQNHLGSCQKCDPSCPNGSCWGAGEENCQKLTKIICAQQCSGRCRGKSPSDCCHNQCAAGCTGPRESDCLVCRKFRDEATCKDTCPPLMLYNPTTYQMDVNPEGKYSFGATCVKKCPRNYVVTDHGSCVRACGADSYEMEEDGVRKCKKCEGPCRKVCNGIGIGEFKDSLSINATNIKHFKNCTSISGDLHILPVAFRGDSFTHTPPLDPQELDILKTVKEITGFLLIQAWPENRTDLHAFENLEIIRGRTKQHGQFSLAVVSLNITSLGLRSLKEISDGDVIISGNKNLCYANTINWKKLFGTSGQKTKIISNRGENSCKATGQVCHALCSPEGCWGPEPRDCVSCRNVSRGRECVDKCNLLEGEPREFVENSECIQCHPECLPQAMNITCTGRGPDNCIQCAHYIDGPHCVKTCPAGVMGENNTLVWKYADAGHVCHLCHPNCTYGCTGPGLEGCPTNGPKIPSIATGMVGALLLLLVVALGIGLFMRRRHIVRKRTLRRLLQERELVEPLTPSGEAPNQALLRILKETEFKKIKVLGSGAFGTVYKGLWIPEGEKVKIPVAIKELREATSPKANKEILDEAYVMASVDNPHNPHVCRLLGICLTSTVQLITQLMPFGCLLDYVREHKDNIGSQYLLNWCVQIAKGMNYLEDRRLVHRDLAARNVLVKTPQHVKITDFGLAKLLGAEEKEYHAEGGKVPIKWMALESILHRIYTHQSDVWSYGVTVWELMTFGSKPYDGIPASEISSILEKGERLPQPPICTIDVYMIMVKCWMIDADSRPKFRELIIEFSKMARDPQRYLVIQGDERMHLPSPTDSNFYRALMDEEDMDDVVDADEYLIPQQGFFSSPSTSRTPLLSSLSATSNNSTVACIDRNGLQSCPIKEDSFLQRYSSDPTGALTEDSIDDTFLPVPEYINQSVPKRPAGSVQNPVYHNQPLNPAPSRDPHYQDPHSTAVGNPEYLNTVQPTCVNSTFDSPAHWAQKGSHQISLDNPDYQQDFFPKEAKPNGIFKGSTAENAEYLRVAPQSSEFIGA
T4 sequence (P04626 with tags, fused parts or gaps INS775YVMA): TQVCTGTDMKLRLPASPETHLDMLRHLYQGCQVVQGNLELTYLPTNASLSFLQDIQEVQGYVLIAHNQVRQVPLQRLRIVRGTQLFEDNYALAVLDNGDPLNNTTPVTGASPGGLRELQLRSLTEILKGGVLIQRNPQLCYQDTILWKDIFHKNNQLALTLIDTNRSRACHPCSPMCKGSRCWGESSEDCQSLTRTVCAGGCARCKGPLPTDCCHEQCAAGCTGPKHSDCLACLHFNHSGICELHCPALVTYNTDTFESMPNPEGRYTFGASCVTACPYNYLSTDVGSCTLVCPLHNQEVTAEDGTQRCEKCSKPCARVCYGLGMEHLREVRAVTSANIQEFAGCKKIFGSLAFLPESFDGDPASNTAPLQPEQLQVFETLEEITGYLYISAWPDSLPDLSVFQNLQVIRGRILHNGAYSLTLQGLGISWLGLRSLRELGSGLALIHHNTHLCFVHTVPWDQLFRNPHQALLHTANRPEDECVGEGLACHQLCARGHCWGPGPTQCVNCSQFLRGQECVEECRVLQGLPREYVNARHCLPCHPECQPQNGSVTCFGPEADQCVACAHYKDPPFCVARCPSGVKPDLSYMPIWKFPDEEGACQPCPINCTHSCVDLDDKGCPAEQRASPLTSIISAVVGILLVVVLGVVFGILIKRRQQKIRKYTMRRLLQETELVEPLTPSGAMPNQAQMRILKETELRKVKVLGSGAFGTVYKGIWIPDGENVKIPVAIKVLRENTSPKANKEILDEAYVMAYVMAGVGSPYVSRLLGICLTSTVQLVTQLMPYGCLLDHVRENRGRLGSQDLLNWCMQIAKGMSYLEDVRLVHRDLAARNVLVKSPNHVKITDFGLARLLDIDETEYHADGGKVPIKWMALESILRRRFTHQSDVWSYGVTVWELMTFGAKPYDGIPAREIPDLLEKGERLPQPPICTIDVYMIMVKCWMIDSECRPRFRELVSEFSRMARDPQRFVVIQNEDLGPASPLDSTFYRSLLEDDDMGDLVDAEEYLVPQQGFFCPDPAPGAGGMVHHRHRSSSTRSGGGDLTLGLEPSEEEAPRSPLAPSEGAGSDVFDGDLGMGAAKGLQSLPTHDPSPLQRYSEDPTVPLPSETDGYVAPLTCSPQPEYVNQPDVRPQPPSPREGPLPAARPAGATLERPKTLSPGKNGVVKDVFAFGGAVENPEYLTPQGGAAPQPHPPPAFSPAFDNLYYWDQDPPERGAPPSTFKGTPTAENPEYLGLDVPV

| GI50 (Ba/F3 EGFR NPH ins cells) | GI50 (WT EGFR cell line A-431) | GI50 (OCI-LY-10 cells) | IC50 [2] | hepatocyte CLint at 1 µM [3] | IC50 (WT EGFR) | hepatocyte CLint at 1 µM [4] | GI50 [5] | IC50 [6] | IC50 [7] | IC50 (EGFR L858R&T790M) | GI50 (Ba/F3 EGFR ASV ins cells) | SOA DN AUCSYS (ng·h/mL)/(mg/kg) ([8]; dose-normalised systemic AUC) | Cmax ([8]; rat, plasma, nominal 10 mg/kg (actual dose in c1)) | Structure (SMILES) | GI50 (Ri-1 cells) | GI50 (DB cells) | GI50 [1] | GI50 (TMD-8 cells) |
| --- | --- | --- | --- | --- | --- | --- | --- | --- | --- | --- | --- | --- | --- | --- | --- | --- | --- | --- |
| 21.6 nM | 13 nM | 2.8 nM | 9.7 nM | 161 µL/min/1e6 cells | 7.6 nM | 7.12 µL/min/1e6 cells | 7.7 nM | 6.9 nM | 3 nM | 0.3 nM | 25.2 nM | – | – | C=CC(=O)Nc1cc(Nc2ncnc(Nc3cc(Cl)c(F)cc3C(C)(C)O)n2)c(OC)cc1N(C)CCN(C)C [Compound 11, N-(5-(4-(5-chloro-4-fluoro-2-(2-hydroxypropan-2-yl)phenylamino)-1,3,5-triazin-2-ylamino)-2-((2-(dimethylamino)ethyl)(methyl)amino)-4-methoxyphenyl)acrylamide] | 26 nM | 2800 nM | 20.7 nM | 10.9 nM |
| 29.6 nM | 12.7 nM | 0.97 nM | 14 nM | 6.99 µL/min/1e6 cells | 12.2 nM | 2.77 µL/min/1e6 cells | 3.1 nM | 6.9 nM | 7.8 nM | 0.6 nM | 22.1 nM | 432 (ng·h/mL)/(mg/kg) | 370 ng/mL | C=CC(=O)Nc1cc(Nc2ncnc(Nc3cc(Cl)c(F)cc3C(C)(C)O)n2)c(OC)cc1N1CC[C@@H](N(C)C)C1 [Compound 33, (R)-N-(5-(4-(5-chloro-4-fluoro-2-(2-hydroxypropan-2-yl)phenylamino)-1,3,5-triazin-2-ylamino)-2-(3-(dimethylamino)pyrrolidin-1-yl)-4-methoxyphenyl)acrylamide] | 2 nM | > 3000 nM | 71.1 nM | 2.5 nM |
| 22.9 nM | 10.3 nM | 14.6 nM | 8.5 nM | 67.7 µL/min/1e6 cells | 9.5 nM | 11.8 µL/min/1e6 cells | 1.5 nM | 8.1 nM | 3.3 nM | 0.5 nM | 24 nM | – | – | [2H]C([2H])([2H])N(CCN(C)c1cc(OC)c(Nc2ncnc(Nc3cc(F)c(Cl)cc3C(C)(C)O)n2)cc1NC(=O)C=C)C([2H])([2H])[2H] [Compound 37, N-(2-((2-(bis(methyl-d3)amino)ethyl)(methyl)amino)-5-((4-((4-chloro-5-fluoro-2-(2-hydroxypropan-2-yl)phenyl)amino)-1,3,5-triazin-2-yl)amino)-4-methoxyphenyl) acrylamide] | 34.6 nM | 2980 nM | 22.3 nM | 10 nM |
| 52.9 nM | 13.4 nM | 6.73 nM | 28.6 nM | 5.97 µL/min/1e6 cells | 12.6 nM | 4.02 µL/min/1e6 cells | 1.9 nM | 16.1 nM | 19.9 nM | 1 nM | 35.4 nM | – | – | C=CC(=O)Nc1cc(Nc2ncnc(Nc3cc(F)c(Cl)cc3C(C)(C)O)n2)c(OC)cc1N1CC[C@@H](N(C)C)C1 [Compound 51, (R)-N-(5-(4-(4-chloro-5-fluoro-2-(2-hydroxypropan-2-yl)phenylamino)-1,3,5-triazin-2-ylamino)-2-(3-(dimethylamino)pyrrolidin-1-yl)-4-methoxyphenyl)acrylamide] | 10.3 nM | > 3000 nM | 105 nM | 3.62 nM |
| 18.8 nM | 12.4 nM | 2.72 nM | 14.2 nM | 7.9 µL/min/1e6 cells | 18 nM | 2.71 µL/min/1e6 cells | 2.1 nM | 12.3 nM | 9 nM | 0.4 nM | 25.6 nM | – | – | C=CC(=O)Nc1cc(Nc2ncnc(Nc3cc(Cl)c(Cl)cc3C(C)(C)O)n2)c(OC)cc1N1CC[C@@H](N(C)C)C1 [Compound 61, (R)-N-(5-(4-(4,5-dichloro-2-(2-hydroxypropan-2-yl)phenylamino)-1,3,5-triazin-2-ylamino)-2-(3-(dimethylamino)pyrrolidin-1-yl)-4-methoxyphenyl)acry lamide] | 5.62 nM | 1510 nM | 87.8 nM | 1.03 nM |
| 33 nM | 20.8 nM | 11.4 nM | 31.5 nM | 17.5 µL/min/1e6 cells | 136 nM | 3.89 µL/min/1e6 cells | 2.8 nM | 27 nM | 15.3 nM | 1.7 nM | 46.1 nM | – | – | C=CC(=O)Nc1cc(Nc2nccc(Nc3cc(Cl)c(Cl)cc3C(C)(C)O)n2)c(OC)cc1N1CC[C@@H](N(C)C)C1 [Compound 68, (R)-N-(5-(4-(4,5-dichloro-2-(2-hydroxypropan-2-yl)phenylamino)pyrimidin-2-ylamino)-2-(3-(dimethylamino)pyrrolidin-1-yl)-4-methoxyphenyl)acrylamide] | 13.6 nM | 2510 nM | 96.7 nM | 3.6 nM |
| 43.2 nM | 8 nM | 16.3 nM | 22.6 nM | 6.15 µL/min/1e6 cells | 27.8 nM | 1.1 µL/min/1e6 cells | 3.3 nM | 8.6 nM | 12.2 nM | 0.7 nM | 27.4 nM | – | – | C=CC(=O)Nc1cc(Nc2ncnc(Nc3cc(Cl)c(F)cc3C(C)(C)O)n2)c(OC)cc1N1CC[C@@H](NC)C1 [Compound 73, (R)-N-(5-(4-(5-chloro-4-fluoro-2-(2-hydroxypropan-2-yl)phenylamino)-1,3,5-triazin-2-ylamino)-4-methoxy-2-(3-(methylamino)pyrrolidin-1-yl)phenyl) acrylamide] | 151 nM | > 3000 nM | 26 nM | 3.75 nM |
| 50 nM | 17.8 nM | 7.04 nM | 13.5 nM | 13.2 µL/min/1e6 cells | 50.4 nM | 1.42 µL/min/1e6 cells | 0.8 nM | 7.1 nM | 2.1 nM | 0.4 nM | 55.6 nM | – | – | C=CC(=O)Nc1cc(Nc2nccc(Nc3cc(Cl)c(F)cc3C(C)(C)O)n2)c(OC)cc1N1C[C@@H]2CN(C)C[C@@H]21 [Compound 96, N-(5-(4-(5-chloro-4-fluoro-2-(2-hydroxypropan-2-yl)phenylamino)pyrimidin-2-ylamino)-4-methoxy-2-((1S,5R)-3-methyl-3,6-diazabicyclo[3.2.0]heptan-6-yl)phenyl)acrylamide] | 25.1 nM | 2990 nM | 50 nM | 2.8 nM |
